According to EP4635500A1, “THERAPEUTIC AGENT FOR BACTERIAL INFECTION” (Sumitomo Pharma Co., Ltd., priority 2022, dated 2024):
≈ marks a conversion by molar mass, not a printed value. Where two headings read alike, the source gives them in different places.

What was measured:
P. aeruginosa = assay: MIC, broth microdilution, CDC/FDA Antibiotic Resistance Isolate Bank (Example 7, Tables 10, 15); assay type: cell-based; details: Pseudomonas aeruginosa, read-out: MIC
A. baumannii = assay: MIC, broth microdilution, CDC/FDA Antibiotic Resistance Isolate Bank (Example 7, Tables 9, 13, 14); assay type: cell-based, Acinetobacter baumannii; details: for MIC: read-out: MIC
[1] = MIC distribution, metallo-β-lactamase-producing A. baumannii, inhibitor µg/mL in parentheses

Q: What does the source list for `C[C@H]1COc2c(N3CCN(C)CC3)c(F)cc3c(=O)c(C(=O)O)cn1c23` [Levofloxacin, levofloxacin]?
A: MIC (P. aeruginosa; P. aeruginosa KUB No. 5751, AR Bank # 355): 32 µg/mL (≈ 88.6 µM); MIC (P. aeruginosa; P. aeruginosa KUB No. 5752, AR Bank # 356): 0.5 µg/mL (≈ 1.38 µM); MIC (P. aeruginosa; P. aeruginosa KUB No. 5753, AR Bank # 357): 32 µg/mL (≈ 88.6 µM); MIC (P. aeruginosa; P. aeruginosa KUB No. 5754, AR Bank # 358): 8 µg/mL (≈ 22.1 µM); MIC (P. aeruginosa; P. aeruginosa KUB No. 5755, AR Bank # 359): 8 µg/mL (≈ 22.1 µM); MIC (P. aeruginosa; P. aeruginosa KUB No. 5756, AR Bank # 360): 1 µg/mL (≈ 2.77 µM); MIC (P. aeruginosa; P. aeruginosa KUB No. 5785, AR Bank # 439): 32 µg/mL (≈ 88.6 µM); MIC (P. aeruginosa; P. aeruginosa KUB No. 5786, AR Bank # 440): 32 µg/mL (≈ 88.6 µM); MIC (P. aeruginosa; P. aeruginosa KUB No. 5787, AR Bank # 441): 0.5 µg/mL (≈ 1.38 µM); MIC (P. aeruginosa; P. aeruginosa KUB No. 5788, AR Bank # 443): 64 µg/mL (≈ 177 µM); MIC (P. aeruginosa; P. aeruginosa KUB No. 5789, AR Bank # 444): 32 µg/mL (≈ 88.6 µM); MIC (P. aeruginosa; P. aeruginosa KUB No. 5790, AR Bank # 445): 32 µg/mL (≈ 88.6 µM); MIC (P. aeruginosa; P. aeruginosa KUB No. 5793, AR Bank # 449): 32 µg/mL (≈ 88.6 µM); MIC (P. aeruginosa; P. aeruginosa KUB No. 5798, AR Bank # 455): 4 µg/mL (≈ 11.1 µM); MIC (P. aeruginosa; P. aeruginosa KUB No. 5799, AR Bank # 456): > 64 µg/mL; MIC (P. aeruginosa; P. aeruginosa KUB No. 5800, AR Bank # 457): 64 µg/mL (≈ 177 µM); MIC (P. aeruginosa; P. aeruginosa KUB No. 5801, AR Bank # 458): 2 µg/mL (≈ 5.53 µM); MIC (P. aeruginosa; P. aeruginosa KUB No. 5802, AR Bank # 459): 8 µg/mL (≈ 22.1 µM); MIC (P. aeruginosa; P. aeruginosa KUB No. 5804, AR Bank # 862): 4 µg/mL (≈ 11.1 µM); MIC (P. aeruginosa; P. aeruginosa KUB No. 5805, AR Bank # 863): 64 µg/mL (≈ 177 µM); MIC (P. aeruginosa; P. aeruginosa KUB No. 5806, AR Bank # 864): > 64 µg/mL; MIC (P. aeruginosa; P. aeruginosa KUB No. 5813, AR Bank # 508): 0.008 µg/mL (≈ 0.0221 µM); MIC (P. aeruginosa; P. aeruginosa KUB No. 5814, AR Bank # 509): 0.032 µg/mL (≈ 0.0886 µM); MIC (P. aeruginosa; P. aeruginosa KUB No. 5815, AR Bank # 510): 0.008 µg/mL (≈ 0.0221 µM); MIC (P. aeruginosa; P. aeruginosa KUB No. 5816, AR Bank # 511): 0.001 µg/mL (≈ 0.00277 µM); MIC (P. aeruginosa; P. aeruginosa KUB No. 5817, AR Bank # 512): 0.004 µg/mL (≈ 0.0111 µM); MIC (P. aeruginosa; P. aeruginosa KUB No. 5818, AR Bank # 513): > 0.064 µg/mL; MIC (P. aeruginosa; P. aeruginosa KUB No. 5819, AR Bank # 514): 0.001 µg/mL (≈ 0.00277 µM); MIC (P. aeruginosa; P. aeruginosa KUB No. 5820, AR Bank # 515): > 0.064 µg/mL; MIC (P. aeruginosa; P. aeruginosa KUB No. 5821, AR Bank # 516): 0.001 µg/mL (≈ 0.00277 µM); MIC (P. aeruginosa; P. aeruginosa KUB No. 5823, AR Bank # 518): 0.064 µg/mL (≈ 0.177 µM); MIC (P. aeruginosa; P. aeruginosa KUB No. 5831, AR Bank # 526): 0.032 µg/mL (≈ 0.0886 µM); MIC (P. aeruginosa; P. aeruginosa KUB No. 5832, AR Bank # 527): 0.032 µg/mL (≈ 0.0886 µM); MIC (P. aeruginosa; P. aeruginosa KUB No. 5833, AR Bank # 528): 0.032 µg/mL (≈ 0.0886 µM); MIC (P. aeruginosa; P. aeruginosa KUB No. 5834, AR Bank # 529): 0.016 µg/mL (≈ 0.0443 µM); MIC (A. baumannii; Acinetobacter baumannii, KUB No. 5719, AR Bank #286): 8 µg/mL (≈ 22.1 µM); MIC (A. baumannii; Acinetobacter baumannii, KUB No. 5720, AR Bank #287): 16 µg/mL (≈ 44.3 µM); MIC (A. baumannii; Acinetobacter baumannii, KUB No. 5721, AR Bank #288): > 64 µg/mL; MIC (A. baumannii; Acinetobacter baumannii, KUB No. 5722, AR Bank #259): 16 µg/mL (≈ 44.3 µM); MIC (A. baumannii; Acinetobacter baumannii, KUB No. 5723, AR Bank #290): 8 µg/mL (≈ 22.1 µM); MIC (A. baumannii; Acinetobacter baumannii, KUB No. 5724, AR Bank #291): 8 µg/mL (≈ 22.1 µM); MIC (A. baumannii; Acinetobacter baumannii, KUB No. 5725, AR Bank #292): 4 µg/mL (≈ 11.1 µM); MIC (A. baumannii; Acinetobacter baumannii, KUB No. 5726, AR Bank #293): 4 µg/mL (≈ 11.1 µM); MIC (A. baumannii; Acinetobacter baumannii, KUB No. 5727, AR Bank #294): 32 µg/mL (≈ 88.6 µM); MIC (A. baumannii; Acinetobacter baumannii, KUB No. 5728, AR Bank #295): 16 µg/mL (≈ 44.3 µM); MIC (A. baumannii; Acinetobacter baumannii, KUB No. 5729, AR Bank #296): 32 µg/mL (≈ 88.6 µM); MIC (A. baumannii; Acinetobacter baumannii, KUB No. 5730, AR Bank #297): 32 µg/mL (≈ 88.6 µM); MIC (A. baumannii; Acinetobacter baumannii, KUB No. 5731, AR Bank #298): 8 µg/mL (≈ 22.1 µM); MIC (A. baumannii; Acinetobacter baumannii, KUB No. 5732, AR Bank #299): 64 µg/mL (≈ 177 µM); MIC (A. baumannii; Acinetobacter baumannii, KUB No. 5733, AR Bank #300): 64 µg/mL (≈ 177 µM); MIC (A. baumannii; Acinetobacter baumannii, KUB No. 5734, AR Bank #301): 16 µg/mL (≈ 44.3 µM); MIC (A. baumannii; Acinetobacter baumannii, KUB No. 5735, AR Bank #302): > 64 µg/mL; MIC (A. baumannii; Acinetobacter baumannii, KUB No. 5736, AR Bank #303): 16 µg/mL (≈ 44.3 µM); MIC (A. baumannii; Acinetobacter baumannii, KUB No. 5737, AR Bank #304): 16 µg/mL (≈ 44.3 µM); MIC (A. baumannii; Acinetobacter baumannii, KUB No. 5738, AR Bank #305): 16 µg/mL (≈ 44.3 µM); MIC (A. baumannii; Acinetobacter baumannii, KUB No. 5739, AR Bank #306): 32 µg/mL (≈ 88.6 µM); MIC (A. baumannii; Acinetobacter baumannii, KUB No. 5740, AR Bank #307): 16 µg/mL (≈ 44.3 µM); MIC (A. baumannii; Acinetobacter baumannii, KUB No. 5741, AR Bank #308): 16 µg/mL (≈ 44.3 µM); MIC (A. baumannii; Acinetobacter baumannii, KUB No. 5742, AR Bank #309): 64 µg/mL (≈ 177 µM); MIC (A. baumannii; Acinetobacter baumannii, KUB No. 5743, AR Bank #310): 32 µg/mL (≈ 88.6 µM); MIC (A. baumannii; Acinetobacter baumannii, KUB No. 5744, AR Bank #311): 4 µg/mL (≈ 11.1 µM); MIC (A. baumannii; Acinetobacter baumannii, KUB No. 5745, AR Bank #312): 4 µg/mL (≈ 11.1 µM); MIC (A. baumannii; Acinetobacter baumannii, KUB No. 5746, AR Bank #313): 8 µg/mL (≈ 22.1 µM); MIC50 (A. baumannii; Acinetobacter baumannii, 55 isolates of A. baumannii, read-out: MIC50): 16 µg/mL (≈ 44.3 µM); MIC80 (A. baumannii; Acinetobacter baumannii, 55 isolates of A. baumannii, read-out: MIC80): 32 µg/mL (≈ 88.6 µM); MIC90 (A. baumannii; Acinetobacter baumannii, 55 isolates of A. baumannii, read-out: MIC90): 64 µg/mL (≈ 177 µM); Number of isolates at MIC 8 µg/mL (A. baumannii; [1]): 3; Number of isolates at MIC 16 µg/mL (A. baumannii; [1]): 1
